# Patent publication US11168131B2, “Antibody molecule-drug conjugates and uses thereof” (priority 2015, dated 2021)
# How the values were obtained:
# [1] = test system: multiple drug resistant (MDR) strains of P. aeruginosa; assay: Microbial killing assay against multiple drug resistant strains; format: cell-based, Pseudomonas aeruginosa; settings: assay as in Example 15; for 50% Killing Activity BAA-2108: MDR P. aeruginosa strain BAA-2108; for 50% Killing Activity BAA-2110: MDR P. aeruginosa strain BAA-2110; for 50% Killing Activity BAA-2114: MDR P. aeruginosa strain BAA-2114; for 50% Killing Activity Pae 27853: P. aeruginosa strain 27853
# Method: The microbial killing assay was performed as follows. Bacterial cells were grown aerobically overnight on agar plates at 37° C. Overnight plates were used to seed 30 ml cultures of growth media in 250 ml vented flasks. Cultures were grown aerobically at 37° C., shaking at 150 rpm. Growth was monitored at A600 […] and bacterial cells were harvested at mid-log growth. Ten ml of culture was pelleted at 4000×G for 10 minutes and washed one time with PBS plus 1% BSA before re-suspending in 2 ml PBS+BSA. […] Cultures were diluted to 1×10^4 cells/ml in PBS plus BSA. Test articles were diluted in PBS+1% BSA and 50 μl per concentration tested was loaded into a 96 well polypropylene microtiter plate. Fifty μl of diluted culture was added to all test wells as well as no compound control wells. Plates were shaken and incubated at 37° C., 90 minutes, static. Ten μl from each assay well was plated onto agar plates and incubated at 37° C. overnight. Percent killing was determined by the CFU for test wells compared to the CFU for no compound control wells.
# P. aeruginosa [2] = assay: MIC in the presence of 50% human serum (hsMIC); format: cell-based, Pseudomonas aeruginosa; settings: for hsMIC/MIC: Pae 27853, ratio of hsMIC to MIC; for 50% hsMIC (μg/ml) Pae 27853: in the presence of 50% human serum
# Method: In an embodiment, the MIC is determined in the presence of phosphate-buffered saline (PBS). In an embodiment, the MIC or hsMIC is determined on per ADC basis. In an embodiment, the MIC or hsMIC is determined on per payload or antimicrobial peptide basis.
# P. aeruginosa [3] = assay: Minimal inhibitory concentration (MIC) assay, broth microdilution; format: cell-based, Pseudomonas aeruginosa; settings: for MIC (mg/ml) Pae 27853 / MIC (mg/ml) Pae 39324: in the presence of PBS
# S. aureus = assay: as above; format: cell-based, Staphylococcus aureus; settings: in the presence of PBS
# K. pneumoniae = assay: as above; format: cell-based, Klebsiella pneumoniae; settings: in the presence of PBS
# E. coli = assay: as above; format: cell-based, Escherichia coli; settings: for MIC (mg/ml) Eco 43745: in the presence of PBS
substance,measurement,setting,value
GGGGRFKRFRKKFKKLFKKLSPVIPLLHLG [Peptide P295],50% Killing Activity BAA-2108,[1],0.6 µg/mL
same,50% Killing Activity BAA-2110,[1],0.6 µg/mL
same,50% Killing Activity BAA-2114,[1],0.14 µg/mL
same,50% Killing Activity Pae 27853,[1],0.3 µg/mL
same,hsMIC/MIC,P. aeruginosa [2],0.5
same,50% hsMIC (μg/ml) Pae 27853,P. aeruginosa [2],2 µg/mL
same,MIC (mg/ml) Pae 27853,P. aeruginosa [3],4 mg/mL
same,MIC (mg/ml) Pae 39324,P. aeruginosa [3],4 mg/mL
Ceftazadime [reference compound],MIC (mg/ml) Sau 29213,S. aureus,0.004 mg/mL
same,hsMIC/MIC,P. aeruginosa [2],1
same,50% hsMIC (μg/ml) Pae 27853,P. aeruginosa [2],1 µg/mL
same,MIC (mg/ml) Pae 27853,P. aeruginosa [3],1 mg/mL
same,MIC (mg/ml) Pae 39324,P. aeruginosa [3],1 mg/mL
GGGLLGDFFRKSKEKIGKEFKRIVQRIKDFLRNLVPRTES [Peptide P265],hsMIC/MIC,P. aeruginosa [2],>4
same,50% hsMIC (μg/ml) Pae 27853,P. aeruginosa [2],>128 µg/mL
same,MIC (mg/ml) Kpn 700603,K. pneumoniae,>0.128 mg/mL
same,MIC (mg/ml) Eco 43745,E. coli,0.008 mg/mL
GGGKRFKKFFKKLKNSVKKRAKKFFKKPRVIGVSIPF [Peptide P296],hsMIC/MIC,P. aeruginosa [2],0.25
same,50% hsMIC (μg/ml) Pae 27853,P. aeruginosa [2],1 µg/mL
same,MIC (mg/ml) Pae 27853,P. aeruginosa [3],4 mg/mL
same,MIC (mg/ml) Pae 39324,P. aeruginosa [3],2 mg/mL
same,MIC (mg/ml) Eco 43745,E. coli,0.004 mg/mL
GGGKFFRKLKKSVKKRAKEFFKKPRVIGVSIPF [Peptide P297],50% Killing Activity BAA-2108,[1],0.28 µg/mL
same,50% Killing Activity BAA-2110,[1],0.28 µg/mL
same,50% Killing Activity BAA-2114,[1],0.07 µg/mL
same,50% Killing Activity Pae 27853,[1],0.04 µg/mL
same,hsMIC/MIC,P. aeruginosa [2],2
same,50% hsMIC (μg/ml) Pae 27853,P. aeruginosa [2],8 µg/mL
same,MIC (mg/ml) Pae 27853,P. aeruginosa [3],4 mg/mL
same,MIC (mg/ml) Pae 39324,P. aeruginosa [3],2 mg/mL
same,MIC (mg/ml) Eco 43745,E. coli,0.002 mg/mL
GAFGNFLKGVAKKAGLKILSIAQCKLFGTC [peptide 70],MIC μg/ml Pae 27853,P. aeruginosa [3],8 µg/mL
same,MIC μg/ml Eco 25922,E. coli,4 µg/mL
GLRKRLRKFRNKIKEKLKKIGQKIQGLLPKLA [Peptide 33],MIC μg/ml Pae 27853,P. aeruginosa [3],8 µg/mL
same,MIC μg/ml Eco 25922,E. coli,8 µg/mL
GIGKFLKKAKKFGKAFVKILKKGGGGSGGGGS [peptide 24],MIC μg/ml Pae 27853,P. aeruginosa [3],8 µg/mL
GGGGLRRLGRKIAHGIKKYGPTILRIIRIAG [Peptide P293],MIC (mg/ml) Kpn 700603,K. pneumoniae,0.004 mg/mL
same,MIC (mg/ml) Pae 27853,P. aeruginosa [3],8 mg/mL
same,MIC (mg/ml) Pae 39324,P. aeruginosa [3],2 mg/mL
same,MIC (mg/ml) Eco 43745,E. coli,0.004 mg/mL
GGGGSGGGGSGIGKFLKKAKKFGKAFVKILKK [peptide 23],MIC μg/ml Eco 25922,E. coli,8 µg/mL
GGGGIGKFLKKAKKFGKAFVKILKK [Peptide P261],MIC (mg/ml) Eco 43745,E. coli,0.004 mg/mL
GGG-D-Dab-cyclic(L-Dab-L-Dab-D-Leu-L-Phe-L-Dab-L-Dab-L-Leu) [GGG-Octapeptin],MIC (mg/ml) Sau 29213,S. aureus,>0.128 mg/mL
same,hsMIC/MIC,P. aeruginosa [2],1
same,50% hsMIC (μg/ml) Pae 27853,P. aeruginosa [2],2 µg/mL
same,MIC (mg/ml) Kpn 700603,K. pneumoniae,>0.128 mg/mL
same,MIC (mg/ml) Pae 27853,P. aeruginosa [3],2 mg/mL
same,MIC (mg/ml) Pae 39324,P. aeruginosa [3],2 mg/mL
GGGGLRKRLRKFRNKIKEKLKKIGQKIQGLLPKLA [Peptide P271],MIC (mg/ml) Eco 43745,E. coli,0.004 mg/mL
(MAL)-(EG3)-GIGKFLKKAKKFGKAFVKILKK [peptide 21],MIC μg/ml Eco 25922,E. coli,8 µg/mL
RLGNFFRKAKKKIGRGLKKIGQKIKDFLGNLVPRTES [peptide 128],MIC μg/ml Pae 27853,P. aeruginosa [3],8 µg/mL
GIGKFLKKAKKFGKAFVKILKK [peptide 109],MIC μg/ml Pae 27853,P. aeruginosa [3],8 µg/mL
same,MIC μg/ml Eco 25922,E. coli,4 µg/mL
GGGRGLRRLGRKIAHGVKKYGPTVLRIIKKYG [Peptide P294],MIC (mg/ml) Kpn 700603,K. pneumoniae,0.008 mg/mL
same,MIC (mg/ml) Eco 43745,E. coli,0.002 mg/mL
